Test results published in PubChem BioAssay AID743229 (The Scripps Research Institute Molecular Screening Center, 2013).
pEC50: −log10 of the molar value.

Target: Trace amine-associated receptor 1 (Homo sapiens) (UniProt Q96RJ0)
Experiment: human TAAR1 agonist potency, dose response, cell-based, fluorescence, late stage (AID 743229)
Details: TAAR1-expressing cells, fluorescence agonist read-out; cut-off not given, nearly all actives have EC50 up to about 2.8 µM

Chain of Trace amine-associated receptor 1 (Homo sapiens) (Q96RJ0 whole entry, looked up): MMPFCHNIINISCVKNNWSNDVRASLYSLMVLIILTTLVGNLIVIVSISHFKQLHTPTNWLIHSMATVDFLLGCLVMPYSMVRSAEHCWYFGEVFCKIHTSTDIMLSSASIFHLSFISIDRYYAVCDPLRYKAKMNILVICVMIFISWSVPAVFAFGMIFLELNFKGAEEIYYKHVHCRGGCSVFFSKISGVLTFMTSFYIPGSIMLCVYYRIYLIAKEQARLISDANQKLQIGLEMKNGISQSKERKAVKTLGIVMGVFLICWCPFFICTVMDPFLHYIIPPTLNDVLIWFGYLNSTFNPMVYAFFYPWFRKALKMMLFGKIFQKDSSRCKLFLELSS

pEC50, active:
CCOC(=O)C(NC(C)=O)(N1CCc2ccccc2C1)C(F)(F)F (centres undefined) 7.12, O=C(CCN1CCC(c2ccccc2)C1)c1cccs1 (centres undefined) 6.97, OCCNc1nc(Nc2ccc(O)cc2)nc2ccccc12 6.09, O=C(C(=O)N1CCc2ccccc2C1)c1cn(CC(=O)N2CCCCC2)c2ccccc12 6.11, COc1cc(C(=O)CCN2CCC(c3ccccc3)C2)cc(OC)c1OC (centres undefined) 7.07, OCCNc1nc(Nc2cccc(O)c2)nc2ccccc12 6.59, O=C(Nc1cccnc1)Nc1cccc(F)c1 5.48, O=C(Nc1ccncc1)Nc1ccc(F)cc1 6.06, c1ccc2c3c([nH]c2c1)CCNC3 6.53, CC(=NCCc1ccccc1)C1CCOC1=O (centres undefined) 7.44, c1ccc(CCn2nnnc2C(c2cccs2)N2CCN(Cc3ccc4c(c3)OCO4)CC2)cc1 (centres undefined) 6.63, Cc1cc(C)n(C(CC(=O)N2CCc3ccccc3C2)C(=O)O)n1 (centres undefined) 6.77, CC1(C)CCCN(C(=O)c2coc(=O)c(Br)c2)C1 6.32, Cc1cc(N(C)C)nc(Nc2ccccc2)n1 6.74, c1ccc2c(c1)CCN(c1nc3cc4c(cc3s1)OCO4)C2 6.56, Cc1ccc(NC(=O)CCN2CCc3ccccc3C2)cc1 5.90, CCOC(=O)C(NC(=O)CC)(N1CCc2ccccc2C1)C(F)(F)F (centres undefined) 7.37, NC(N)=NN=Cc1c(Cl)cccc1Cl 6.66, O=C(CCN1CCc2ccccc2CC1)c1ccc2c(c1)OCCO2 6.47, O=C(CCCCl)N1CCc2[nH]c3ccccc3c2C1 7.00, O=C(Nc1ccccc1)Nc1ccncc1 6.09, Nc1nc(Nc2cccc(F)c2)nc2ccccc12 6.46, O=C(CCN1CCC(c2ccccc2)C1)c1ccc2c(c1)OCCO2 (centres undefined) 6.58, Nc1nc(Nc2ccccc2)nc2ccccc12 6.68
